Laboratory results reported in patent US10590121B2, “Kinase inhibitors and methods for making and using” (Rigel Pharmaceuticals, Inc., priority 2017, dated 2020).

Columns and labels:
[1] = system: LPS induced IL23p19 in THP-1 cells; assay: LPS Induced IL23p19 in THP-1 Cells (with IFNγ Primed) Assay; format: cell-based; conditions: Homo sapiens; THP-1 cells primed with IFNγ 50 ng/mL, 1 μg/mL LPS, 18 hours, 10 pt; read-out: IL23-p19 ELISA, THP1-IFNy, LPS, 10 pt EC50
From the text: LPS Induced IL23p19 in THP-1 Cells (with IFNγ Primed) Assay
THP-1 Cells (ATCC, Cat # TIB-202), Dimethyl Sulfoxide (DMSO) (Sigma-Aldrich, Cat # D2650), RPMI 1640 (Cellgro, Cat #10-040-CM), Fetal Bovine Serum (Sigma, Cat # F4135), Albumin From Bovine Serum (BSA) (Sigma-Aldrich, Cat # A7906), LPS (Serotype K-235, Sigma, Product Number L 2143), IFNγ (Peprotech, Cat #300-02), Capture antibody: Human IL-23p19 ELISA (e-Bioscience, Cat. #14-7238-85), Detection antibody: Primary Mouse Biotinylated anti-human IL-12 (p40/p70) (e-Bioscience, Cat. #13-7129-85), Secondary HRP-conjugated Streptavidin (R&D Systems, Cat # DY998), 1×PBST Washing Buffer (PBS-Tween tablet) (VWR International, Cat #80058-558), ELISA Blocking Buffer (PBS with 1% BSA), ELISA Dilution Buffer (PBS with 1% BSA), 384 Well Flat-Bottom, MaxiSorp Black Immuno Plates (Thermo Scientific, Cat #12-565-346), 384 Well Flat-Bottom, White Tissue Culture Plates (Thermo Scientific, Cat #12-565-343), Super Signal ELISA Pico Chemiluminescent Substrate (Thermo Scientific, Cat #37070), Cell Titer Glo reagent (Promega, Cat # G7573), Positive control, IKK2VI inhibitor (Calbiochem, Cat #401483), AquaMax 4000 plate washer (Molecular Devices), Luminometer, Wallac Victor2 1420 Multilabel Counter.
On day 1, 50K/well THP-1 cells were seeded and primed with IFNγ (50 ng/mL) in 384-well plates for about 18 hours in RPMI media with 10% FBS. On day 2, the compound was serially diluted in DMSO from 5 mM in 3-fold dilutions, and then diluted 1:125 in RPMI media with 10% FBS. 50 μL/well 2× compound was added to 50 μL/well THP-1 cells (with IFNγ primed) in duplicate in 384 well tissue culture plates. The cells were pre-incubated with compound for 1 hour at 37° C., 5% CO2 before addition of 10 μL/well 11×LPS to give a final concentration of 1 μg/mL LPS. Day 3, after stimulation for 18 hours at 37° C., 5% CO2, the assay plate was centrifuged and 70 μL/well supernatant was harvested. IL-23p19 protein in 70 μL/well of supernatant was measured by sandwich ELISA, and 25 μl/well Cell Titer Glo reagent was added to the remaining cells to measure compound toxicity.
Human IL-23p19 Sandwich ELISA:
Maxisorp immuno ELISA plates were pre-coated with 25 μL/well of anti-IL-23p19 capture antibody (2.5 ug/mL) in PBS overnight at room temperature. After washing with 1×PBST, the plates were blocked using 100 μL/well of 1% BSA in PBS for 2 hours at room temperature. The plates were washed three times with 1×PBST and 70 μL/well supernatant were added. The plates were incubated at room temperature for 2 hours with shaking and washed three times with 1×PBST. 25 μL/well of biotin labeled anti-IL-12 (p40/p70) detection antibody (100 ng/mL) in PBS with 1% BSA was added and the plates were incubated at room temperature for 2 hours with shaking. After washing three times with 1×PBST, 25 μL/well of streptavidin-HRP (1:200) in PBS with 1% BSA was added and the plates were incubated at room temperature for 20 minutes with shaking. The plates were washed three times with 1×PBST and 25 μL/well of Super Signal ELISA Pico Chemiluminescent Substrate were added. The plates were read with a luminometer, and the chemiluminescence values were entered into Athena (Rigel) for curve fitting, EC50 calculation, and database storage.

[2] = system: LPS induced IL-23 (p19/p40) in DC cells differentiated from human PBMC; assay: IL23-p19 ELISA, dendritic cells (DC differentiated from human PBMC), IFNγ primed, LPS stimulated; format: cell-based; conditions: human PBMC-derived dendritic cells, 1 μg/ml LPS, 18 hours, 10 pt
Procedure: Compound Screening Using DC Cells
1. Differentiation of PBMC's to DC Cells:
Human PBMC cells (400 million) obtained from the vendor were transferred into a T-175 flask containing 15 ml RPMI media (10% FBS) and incubate for 2 hours at 37° C. After 2 hours, the media including floating cells was aspirated out carefully and 12 ml of fresh RPMI media (10% FBS) containing GMCSF (100 ng/ml) and IL4 (20 ng/ml) was added, and the flask was kept in a 37° C. incubator for 7 days.
After 3 days, fresh GMCSF (100 ng/ml) and IL4 (20 ng/ml) were added to the flask and the incubation continued. After 7 days, the fully differentiated cells were harvested by spinning down (1200 rpm/5 min) and aspirating the media. The cells were suspended in fresh RPMI media (10% FBS) containing 50 ng/ml IFNγ (1000 U/ml) and then plated (50K/well in 100 μl) onto a white clear bottom 96 well plate and left in a 37° C. incubator for 24 hours.
2. Addition of Compounds:
After 24 hours incubation, 100 μl of RPMI media was added containing 2× concentrated test compound per well to the above cell-culture media (final concentration becomes 1×) and the plates were pre-incubated for 1 hour at 37° C. before stimulating with LPS.
After 1 hour compound pre-incubation, 10 μl per well of 20× concentrated LPS solution in RPMI media was added to give a final concentration of 1 μg/ml. The mixture was shaken and incubated the plates at 37° C. for an additional 18 hours.
155 μl of the supernatant was harvested from each well carefully (without the tip touching the bottom of the well) and to the remaining 50 μl/well of the cell culture plate was added 50 μl of Cell Titer Glo reagent. The mixture was incubated for 1-2 minutes on a shaker and the plate was read for luminescence intensity to determine the compound cytotoxicity. The cell culture supernatant collected above was used to carry out IL23 ELISA (65 μl-Supernatant) and IL10 ELISA (90 μl-Supernatant) as described below.
Human IL-23 (p19/p40) ELISA Protocol (e-Biosciences)
To 10.5 ml PBS add 50 μl of anti-IL23 (p19) was added capture antibody (2.5 μg/ml). The mixture was mixed well and 100 μl of the coating solution was added to each well of the 96 well white plates from Pierce. The wells were covered and incubated overnight at 4° C.
The anti-IL23 (p19)-antibody-coated plates were washed 2× using TBST (use plate washer) and blocked using 200 μl of 0.5% Casein for 1.5-2 hours at room temperature with shaking.
The plates were washed 2× using TBST and the supernatant was transferred (65 μl/well) to the above pre-blocked/IL23 (p19)-antibody-coated 96 well plate, and incubated at room temperature for 1.5 hours with shaking.
The plates were washed 4× using TBST (plate washer) and 100 μl/well detection antibody solution prepared from 2 μl of biotin labeled anti-IL-12 (p40/p70) antibody in 11 ml 1% BSA/PBS solution (1-5000 dilution) was added. The plates were incubated for 1 hour with shaking at room temperature.
Again, the plates were washed 4× with TBST and 100 μl of HRP labeled Streptavidin (R&D Systems) solution (10 μl/10 ml 1% BSA solution) was added, and the plates were incubated at room temperature for another 45 minutes with shaking.
After 45 minutes, the plates were washed with TBST 4× and 100 ul/well Super Signal ELISA Pico Chemiluminescent Substrate from Pierce (3.5 ml A+3.5 ml B+3.5 ml MQ water) was added. The plates were shaken for 1-2 minutes then read on a plate reader.

SMILES	EC50 [1]	EC50 [2]
O=C(Nc1cc(N2CCOCC2)ccc1N1CCCCC1)c1csc(-c2cn[nH]c2)n1 [I-26, N-(5-morpholino-2-(piperidin-1-yl)phenyl)-2-(1H-pyrazol-4-yl)thiazole-4-carboxamide]	554 nM	847 nM
O=C(Nc1ccc(N2CCOCC2)cc1N1CCC(O)CC1)c1ccc(-c2cn[nH]c2)o1 [I-11, N-(2-(4-hydroxypiperidin-1-yl)-4-morpholinophenyl)-5-(1H-pyrazol-4-yl)furan-2-carboxamide]	134 nM	162 nM
O=C(Nc1ccc(NCCN2CCOCC2)cc1N1CCCCC1)c1ccc(-c2cn[nH]c2)o1 [I-73, N-(4-((2-morpholinoethyl)amino)-2-(piperidin-1-yl)phenyl)-5-(1H-pyrazol-4-yl)furan-2-carboxamide]	82.7 nM	175 nM
O=C(Nc1cc(OCCN2CCOCC2)ccc1N1CCCCC1)c1csc(-c2cn[nH]c2)n1 [I-29, N-(5-(2-morpholinoethoxy)-2-(piperidin-1-yl)phenyl)-2-(1H-pyrazol-4-yl)thiazole-4-carboxamide]	105 nM	51.2 nM
O=C(Nc1cc(CC(=O)N2CCOCC2)ccc1N1CCCCC1)c1cccc(-c2cn[nH]c2)n1 [I-63, N-(5-(2-morpholino-2-oxoethyl)-2-(piperidin-1-yl)phenyl)-6-(1H-pyrazol-4-yl)picolinamide]	150 nM	160 nM
CC1(O)CCN(c2cc(N3CCOCC3)ccc2NC(=O)c2csc(-c3cn[nH]c3)n2)CC1 [I-18, N-(2-(4-hydroxy-4-methylpiperidin-1-yl)-4-morpholinophenyl)-2-(1H-pyrazol-4-yl)thiazole-4-carboxamide]	95.1 nM	106 nM
O=C(Nc1cc(CN2CCOCC2)ccc1N1CCCCC1)c1csc(-c2cn[nH]c2)n1 [I-62, N-(5-(morpholinomethyl)-2-(piperidin-1-yl)phenyl)-2-(1H-pyrazol-4-yl)thiazole-4-carboxamide]	306 nM	311 nM
O=C(Nc1cc(CCN2CCOCC2)c(F)cc1N1CCCCC1)c1ccc(-c2cn[nH]c2)o1 [I-31, N-(4-fluoro-5-(2-morpholinoethyl)-2-(piperidin-1-yl)phenyl)-5-(1H-pyrazol-4-yl)furan-2-carboxamide]	17200 nM	63.8 nM
O=C(Nc1ccc(C(=O)N2CCOCC2)cc1N1CCCCC1)c1ccc(-c2cn[nH]c2)o1 [I-46, N-(4-(morpholine-4-carbonyl)-2-(piperidin-1-yl)phenyl)-5-(1H-pyrazol-4-yl)furan-2-carboxamide]	1360 nM	2660 nM
CC1(O)CCN(c2cc(N3CCOCC3)ccc2NC(=O)c2ccc(-c3cn[nH]c3)o2)CC1 [I-17, N-(2-(4-hydroxy-4-methylpiperidin-1-yl)-4-morpholinophenyl)-5-(1H-pyrazol-4-yl)furan-2-carboxamide]	216 nM	166 nM
CN(CCN1CCOCC1)c1ccc(NC(=O)c2cccc(-c3cn[nH]c3)n2)c(N2CCCCC2)c1 [I-69, N-(4-(methyl(2-morpholinoethyl)amino)-2-(piperidin-1-yl)phenyl)-6-(1H-pyrazol-4-yl)picolinamide]	2630 nM	2820 nM
O=C(Nc1cc(C(=O)N2CCOCC2)ccc1N1CCCCC1)c1ccc(-c2cn[nH]c2)o1 [I-58, N-(5-(morpholine-4-carbonyl)-2-(piperidin-1-yl)phenyl)-5-(1H-pyrazol-4-yl)furan-2-carboxamide]	1500 nM	5600 nM
O=C(Nc1ccc(N2CCOCC2)cc1N1CCCCC1)c1ccc(-c2cn[nH]c2)o1 [I-37, N-(4-morpholino-2-(piperidin-1-yl)phenyl)-5-(1H-pyrazol-4-yl)furan-2-carboxamide]	262 nM	153 nM
O=C(Nc1ccc(N2CCOCC2)cc1N1CCC(F)(F)CC1)c1ccc(-c2cn[nH]c2)o1 [I-20, N-(2-(4,4-difluoropiperidin-1-yl)-4-morpholinophenyl)-5-(1H-pyrazol-4-yl)furan-2-carboxamide]	2330 nM	1120 nM
CN1CCN(c2ccc(NC(=O)c3cccc(-c4cn[nH]c4)n3)c(N3CCC(F)CC3)c2)CC1 [I-7, N-(2-(4-fluoropiperidin-1-yl)-4-(4-methylpiperazin-1-yl)phenyl)-6-(1H-pyrazol-4-yl)picolinamide]	880 nM	689 nM
O=C(Nc1cc(N2CCOCC2)ccc1N1CCCCC1)c1ccc(-c2cn[nH]c2)o1 [I-25, N-(5-morpholino-2-(piperidin-1-yl)phenyl)-5-(1H-pyrazol-4-yl)furan-2-carboxamide]	645 nM	532 nM
O=C(Nc1cc(CCN2CCOCC2)c(F)cc1N1CCCCC1)c1csc(-c2cn[nH]c2)n1 [I-32, N-(4-fluoro-5-(2-morpholinoethyl)-2-(piperidin-1-yl)phenyl)-2-(1H-pyrazol-4-yl)thiazole-4-carboxamide]	173 nM	324 nM
